In the supplement of paper PMC8671470:
± gives the standard deviation of the averaged measurements.

Key:
Details in all cases: 72 h
MV4-11 [1] = test system: MV4-11
In short: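 Fifteen myeloid leukaemia cell lines were seeded in RPMI 1640 at densities titrated to the linear growth range and placed in 384-well plates with acoustically pre-printed compounds at five tenfold doses from 1 to 10,000 nM, in duplicate. After 72 h at 37 °C with 5% CO2, luminescent ATP viability was normalised to vehicle and to a positive control at 10 µM, and curves were fitted with a four-parameter log-logistic model. The IC50 was obtained from these fits.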

HL-60 [2] = assay: cell viability (% survival relative to DMSO control); higher = less cytotoxic
In short: (§1)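 Area under the curve, where listed, was derived from four-parameter log-logistic fits with drc and PharmacoGx. These fits used CellTiter-Glo viability from HL-60 cells in RPMI 1640 with 10% FBS, normalised to DMSO wells and wells holding 10 μM proteasome inhibitor. The full library was rescreened on 384-well plates in duplicate at five tenfold concentrations, 1–10,000 nM, with DMSO or 100 nM of one of three metabolic inhibitors, for 72 h at 37 °C, 5% CO2.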

BV-173 = assay: cell viability (% survival relative to DMSO control, bortezomib = 0%); higher = less cytotoxic
In short: (§2)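 Seeding density for each of the 10 AML and 5 CML cell lines was titrated to the linear growth range. Cells went into 384-well plates pre-printed in duplicate with compounds at 1, 10, 100, 1000 or 10000 nM and were held for 72 h at 37 °C with 5% CO2. CellTiter-Glo luminescence then provided the readout. Percent survival is expressed relative to vehicle at 100% and a 10 µM positive control at 0%, averaged over duplicates.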

HEL = assay: as above
In short: as §2

HL-60 [3] = assay: as above
In short: as §2

K-562 = assay: as above
In short: as §2

KCL-22 = assay: as above
In short: as §2

KG-1 = assay: as above
In short: as §2

KU-812 = assay: as above
In short: as §2

LAMA-84 = assay: as above
In short: as §2

ML-2 = assay: as above
In short: as §2

MOLM-13 = assay: as above
In short: as §2

MV4-11 [4] = assay: as above
In short: as §2

Mono-Mac-6 = assay: as above
In short: as §2

NOMO-1 = assay: as above
In short: as §2

SHI-1 = assay: as above
In short: as §2

THP-1 = assay: as above
In short: as §2

HL-60 [5] = assay: area under dose-response curve (viability, 1 nM-10 uM) (fraction (0-1)); higher = more sensitive
In short: as §1

O=C(/C=C/c1cccnc1)NCCCCC1CCN(C(=O)c2ccccc2)CC1 [Daporinad]
Details | IC50 (cell viability) [nM]
MV4-11 [1] | < 1

cell viability [%], HL-60 [2]
Details | 0.001 µM | 0.01 µM | 0.1 µM | 1 µM | 10 µM
co-treatment: AZD3965 100 nM | 101 ± 1.5 | 17.8 ± 2 | 1.54 ± 0.52 | 0.351 ± 0.32 | 0.166 ± 0.62
co-treatment: DMSO vehicle | 93.6 ± 1.4 | 37.7 ± 8.6 | 3.2 ± 0.55 | 0.816 ± 0.52 | 0.766 ± 0.1
co-treatment: GSK2194069 100 nM | 86.2 ± 22 | 31.1 ± 15 | 2.41 ± 0.44 | 0.71 ± 0.089 | 1.09 ± 0.17
co-treatment: pictilisib 100 nM | 89.7 ± 58 | 42 ± 8.7 | 2.3 ± 1.4 | 0.651 ± 0.56 | 2.01 ± 1.5

Details | area under dose-response curve, co-treatment: AZD3965 100 nM | area under dose-response curve, co-treatment: DMSO vehicle | area under dose-response curve, co-treatment: GSK2194069 100 nM | area under dose-response curve, co-treatment: pictilisib 100 nM | cell viability, 1 nM [%] | cell viability, 10 nM [%] | cell viability, 100 nM [%] | cell viability, 1000 nM [%] | cell viability, 10000 nM [%]
BV-173 | – | – | – | – | 15.7 | 1.15 | 0.0754 | 0.00943 | 0.321
HEL | – | – | – | – | 85.7 | 2.97 | 1.75 | 1.48 | 1.85
HL-60 [3] | – | – | – | – | 63.1 | 6.64 | -0.363 | -0.298 | -0.289
HL-60 [5] | 0.825 | 0.78 | 0.79 | 0.75 | – | – | – | – | –
K-562 | – | – | – | – | 86.5 | 20.4 | 1.83 | 0.861 | 1.37
KCL-22 | – | – | – | – | 83.9 | 10.3 | 1.38 | 1.35 | 1.59
KG-1 | – | – | – | – | 88 | 25.3 | 10.8 | 8.29 | 7.46
KU-812 | – | – | – | – | 71.9 | 14.8 | 5.16 | 5.8 | 4.77
LAMA-84 | – | – | – | – | 83.1 | 6.18 | 2.02 | 1.79 | 2.17
ML-2 | – | – | – | – | 66 | 1.63 | 0.115 | 0.00307 | -0.274
MOLM-13 | – | – | – | – | 69.1 | 15.7 | 0.0519 | 0.204 | -0.318
MV4-11 [4] | – | – | – | – | 25.5 | 0.401 | 0.0312 | -0.345 | -0.425
Mono-Mac-6 | – | – | – | – | 99.2 | 75.4 | 16.7 | 16.4 | 0.909
NOMO-1 | – | – | – | – | 34.5 | 1.36 | 0.217 | 0.164 | 0.267
SHI-1 | – | – | – | – | 86.7 | 107 | 83 | 68.9 | 75.5
THP-1 | – | – | – | – | 85.6 | 120 | 102 | 104 | 101
